Measurements as given in patent publication US20040220267A1, “Derivatives of pentacyclic nortriterpene quinone methides as compounds useful in the treatment of inflammatory, neurodegenerative, and neoplastic diseases” (priority 2003, published 2004).
Where two headings read alike, the source gives them in different places.

How the values were obtained:
nitric oxide production = conditions: cited from earlier work
microglia = conditions: cited from earlier work
topoisomerase II = conditions: cited from earlier work
protein aggregation = assay: In vitro Huntington Aggregation Assay; assay type: biochemical
NF-κB activation = conditions: cited from earlier work
human leukemia HL-60 = conditions: cited from earlier work; for rank order of potency: apoptosis induction in HL-60 and topoisomerase II inhibition, Nagase et al. 2003
inducible NO synthase = conditions: cited from earlier work
Hsp70 = assay type: cell-based
[1] = tested on: constitutive NO synthases; conditions: cited from earlier work
[2] = tested on: heat shock proteins (HSPs); conditions: cited from earlier work
TNF-α = conditions: cited from earlier work
IL-1β = conditions: cited from earlier work
[3] = Cellular toxicity / cytotoxicity; assay type: cell-based

Molecule | inhibition of protein aggregation in the in vitro Huntington Aggregation assay (protein aggregation) | rank order of potency (human leukemia HL-60) | Hsp70 generation (Hsp70; Dose 0.1 uM) | Hsp70 generation (Hsp70; Dose 0.3 uM) | Hsp70 generation (Hsp70; Dose 0.5 uM) | Hsp70 generation (Hsp70; Dose 1.0 uM) | Hsp70 generation (Hsp70; Dose 2.0 uM) | Hsp70 generation (Hsp70; Dose 3.0 uM) | Hsp70 generation (Hsp70; Dose 6 uM) | Hsp70 generation (Hsp70; Dose 10 uM) | other results
N=C(N)NN [aminoguanidine] |  |  |  |  |  |  |  |  |  |  | IC50 (nitric oxide production): 16000 nM
CC1=C(O)C(=O)C=C2C1=CC=C1[C@@]2(C)CC[C@@]2(C)[C@@H]3C[C@](C)(C(=O)O)CC[C@]3(C)CC[C@]12C [celastrol, reference compound] | potent inhibitor | celastrol>etoposide>dihydrocelastrol | .043 | .046 | .039 | .423 | 15.0 | 4.54 | .240 | .034 | inhibition of microglial activation (microglia): inhibits; concentration inhibiting topoisomerase II (topoisomerase II): sub-micromolar concentrations; IC50 (NF-κB activation): 270 nM; concentration inducing apoptosis (human leukemia HL-60; human leukemia HL-60 model): sub-micromolar concentrations; inhibition of expression of inducible NO synthase (inducible NO synthase): inhibits; inhibition of constitutive NO synthases [1]: does not inhibit; concentration enhancing cellular HSP production [2]: sub-micromolar concentrations; IC50 (nitric oxide production): 230 nM; inhibition of production of TNF-α (TNF-α): inhibits; inhibition of production of IL-1β (IL-1β): inhibits
Cc1c(O)c(O)cc2c1CC=C1[C@@]2(C)CC[C@@]2(C)[C@@H]3C[C@](C)(C(=O)O)CC[C@]3(C)CC[C@]12C [dihydrocelastrol] | potent | celastrol>etoposide>dihydrocelastrol | .051 | .036 | .033 | .052 | .049 | .117 | 3.37 | .044 | activity in inhibiting topoisomerase II compared with celastrol and etoposide (topoisomerase II): weaker activity; activity in inducing apoptosis compared with celastrol and etoposide (human leukemia HL-60; human leukemia HL-60 model): weaker activity
COC(=O)[C@]1(C)CC[C@]2(C)CC[C@]3(C)C4=CCc5c(cc(OC(C)=O)c(OC(C)=O)c5C)[C@]4(C)CC[C@@]3(C)[C@@H]2C1 [dihydropristimerin diacetate] |  |  | .038 | .048 | .042 | .049 | .047 | .049 | .246 | .273 | 
COc1cc([C@@H]2c3cc4c(cc3[C@@H](O[C@@H]3O[C@@H]5CO[C@@H](C)O[C@H]5[C@H](O)[C@H]3O)[C@H]3COC(=O)[C@H]23)OCO4)cc(OC)c1O [etoposide] |  | celastrol>etoposide>dihydrocelastrol |  |  |  |  |  |  |  |  | 
COC(=O)[C@]1(C)CC[C@]2(C)CC[C@]3(C)C4=CC=C5C(=CC(=O)C(O)=C5C)[C@]4(C)CC[C@@]3(C)[C@@H]2C1 [pristimerin, reference compound] |  |  | .30 | .056 | .331 | 2.84 | .094 | .035 | .033 | 1.25 | 
dihydrocelastrol diacetate | potent |  | .041 | .039 | .041 | .071 | 12.3 | 2.61 | .040 | .096 | cytotoxicity compared with celastrol [3]: reduced cytotoxicity; potency compared with celastrol (Hsp70): at least equivalent to celastrol in potency
dihydropristimerin | potent |  | .050 | .039 | .037 | .043 | .042 | .045 | .102 | .034 | 
